From ChEMBL document CHEMBL1128056, “Methanodibenzosuberylpiperazines as potent multidrug resistance reversal agents” (Bioorg Med Chem Lett, 1995)

System: CHRC5 cell line
Test: Compound was tested for its cytotoxic effect on CHRC5 Chinese hamster cells at a dose of 1 uM; not cytotoxic
Assay type: functional, cell-based
Conditions: Cricetulus griseus
For `OC(COc1cccc2ncccc12)CN1CCN(C2c3ccccc3C3C(c4ccccc42)C3(F)F)CC1` (stereo in doubt; form 2) [listing 1 of 2 here], the Activity was “Non-toxic”.
For `OC(COc1cccc2ncccc12)CN1CCN(C2c3ccccc3C3C(c4ccccc42)C3(F)F)CC1` (stereo in doubt; form 5) [listing 1 of 2 here], the Activity was “Non-toxic”.
In the case of `OC(COc1cccc2ncccc12)CN1CCN(C2c3ccccc3C3C(c4ccccc42)C3(F)F)CC1` (stereo in doubt; form 1) [listing 1 of 2 here], the Activity is reported as “Non-toxic”.

System: CHRC5 cell line
Test: Tested for in vitro proliferation and viability of multidrug resistant CHRC5 Chinese hamster cells in the presence and absence of doxorubicin in a modified MTT assay
Assay type: functional, cell-based, Cricetulus griseus
Conditions: Cricetulus griseus, CHRC5
With `OC(COc1cccc2ncccc12)CN1CCN(C2c3ccccc3C3C(c4ccccc42)C3(Cl)Cl)CC1` (stereo in doubt; form 1) the EC50 was 100 nM.
`OC(COc1cccc2ncccc12)CN1CCN(C2c3ccccc3CCc3ccccc32)CC1` (stereo not drawn) showed an EC50 of 65 nM.
`COc1ccc(CCN(C)CCCC(C#N)(c2ccc(OC)c(OC)c2)C(C)C)cc1OC` (stereo not drawn) showed an EC50 of 1200 nM.
In the case of `OC(COc1cccc2ncccc12)CN1CCN(C2c3ccccc3C3CC3c3ccccc32)CC1` (stereo not drawn), the EC50 is reported as 40 nM.

Same assay, conditions: chrc5
In the case of `OC(COc1cccc2ncccc12)CN1CCN(C2c3ccccc3C3C(c4ccccc42)C3(F)F)CC1` (stereo in doubt; form 3), the EC50 is reported as 180 nM.
In the case of `OC(COc1cccc2ncccc12)CN1CCN(C2c3ccccc3C3C(c4ccccc42)C3(F)F)CC1` (stereo in doubt; form 4), the EC50 is reported as 200 nM.
Work on `OC(COc1cccc2ncccc12)CN1CCN(C2c3ccccc3C3C(c4ccccc42)C3(F)F)CC1` (stereo in doubt; form 1) [listing 2 of 2 here] yielded an EC50 of 50 nM.
Compound `OC(COc1cccc2ncccc12)CN1CCN(C2c3ccccc3C3C(c4ccccc42)C3(F)F)CC1` (stereo in doubt; form 2) [listing 2 of 2 here] has an EC50 of 60 nM.
With `OC(COc1cccc2ncccc12)CN1CCN(C2c3ccccc3C3C(c4ccccc42)C3(F)F)CC1` (stereo in doubt; form 5) [listing 2 of 2 here] the EC50 was 20.7 nM.
Compound `OC(COc1cccc2ncccc12)CN1CCN(C2c3ccccc3C3C(c4ccccc42)C3(Cl)Cl)CC1` (racemic) has an EC50 of 70 nM.
Compound `OC(COc1cccc2ncccc12)CN1CCN(C2c3ccccc3C3C(c4ccccc42)C3(F)F)CC1` (single isomer, unassigned) has an EC50 of 190 nM.
Compound `OC(COc1cccc2ncccc12)CN1CCN(C2c3ccccc3C3C(c4ccccc42)C3(Cl)Cl)CC1` (stereo in doubt; form 2) has an EC50 of 55 nM.

Target: not listed separately
Test: Binding affinity to glycoprotein p was tested
Conditions: not given
`OC(COc1cccc2ncccc12)CN1CCN(C2c3ccccc3C3C(c4ccccc42)C3(F)F)CC1` (stereo in doubt; form 5) [listing 2 of 2 here] showed an IC50 of 40 nM.

System: not listed separately
Test: Half-life at pH 2.0 and 37 degree C
Assay type: ADME
Conditions: buffer
`OC(COc1cccc2ncccc12)CN1CCN(C2c3ccccc3C3C(c4ccccc42)C3(F)F)CC1` (stereo in doubt; form 1) [listing 2 of 2 here] showed a half-life greater than 72 h.
With `OC(COc1cccc2ncccc12)CN1CCN(C2c3ccccc3C3C(c4ccccc42)C3(Cl)Cl)CC1` (stereo in doubt; form 1) the half-life was greater than 72 h.
